Data published in patent US4983582A, “Preventive and therapeutic method for hypertension” (Kao Corporation, priority 1987, dated 1991).
Entries after “also recorded” stand apart in the source; their conditions may differ.

Key:
SHR-rat [1] = assay: Example 1: systolic blood pressure of SHR-rat at tail, 3 months oral administration; type: in vivo; conditions: 3 ml/day per orally, average, n = 10
Protocol: To each group comprising 10 male SHR of approx. 300 g of the body weight was per orally dosed 3 ml/day of the following aqueous solutions for 3 months;
an aqueous solution of glucose-1-phosphate calcium (2 g/100 ml) represented by the structural formula (a), and
an aqueous solution of glucose-1-phosphate calcium containing compounds of the general formulas (a) and (b) in the weight ratio of 9:1,
while to a control group was given distilled water.
The systolic blood pressure was measured at the tail of each subject, every one, two and three months of the administration period.

SHR-rat [2] = assay: Example 2: systolic blood pressure in the SHR, tail artery, closed method, 15 weeks administration; type: in vivo; conditions: for Systolic blood pressure in the SHR: average, n = 10
Protocol: To each group comprising 10 male SHR at the age of 9 weeks was dosed average 30 ml/day of the following aqueous solutions for 15 weeks; an aqueous solution of glucose-1-phosphate calcium (1 g/100 ml) represented by the structural formula (a), an aqueous solution of calcium lactate (0.83 g/100 ml), and an aqueous solution of hydrochlorothiazide (0.093 g/100 ml), which is one of the thiazide diuretics, while to a control group was dosed distilled water.
Systolic blood pressure was measured in a closed method in the tail artery of the subject at each time of before administration, 5 weeks of administration, and 15 weeks of administration (the measuring apparatus employed was PS-200 of Rikenkaihatsu Co.).

[3] = acute toxicity on peroral dosing to a mouse; conditions: in vivo, po, perorally, read-out: peroral dose at which it exhibits an acute toxicity
[4] = Japanese Patent Publication No. 46-7599 for dental caries; cited from earlier work
[5] = 5 weeks after, average 30 ml/day, glucose-1-phosphate calcium 1 g/100 ml, calcium lactate 0.83 g/100 ml, hydrochlorothiazide 0.093 g/100 ml, control 203
[6] = 15 weeks after, average 30 ml/day, glucose-1-phosphate calcium 1 g/100 ml, calcium lactate 0.83 g/100 ml, hydrochlorothiazide 0.093 g/100 ml, control 211
[7] = before administration, control 197

Compound	Systolic blood pressure of SHR-rat at tail (SHR-rat [1]; 1 month, control 150)	Systolic blood pressure of SHR-rat at tail (SHR-rat [1]; 2 months, control 187)	Systolic blood pressure of SHR-rat at tail (SHR-rat [1]; 3 months, control 215)	Systolic blood pressure in the SHR (SHR-rat [2]; [5])	Systolic blood pressure in the SHR (SHR-rat [2]; [6])	Systolic blood pressure in the SHR (SHR-rat [2]; [7])	reduction of the systolic blood pressure of SHR-rat compared with hydrochlorothiazide (SHR-rat [2]; SHR-rat, Table 2)	LD50 [3] [mg/kg]	physiological effects already reported [4]
O=P(O)(O)OC1O[C@H](CO)[C@@H](O)[C@H](O)[C@H]1O (stereo partly drawn) [Glucose-1-phosphate calcium (a), glucose-1-phosphate calcium]	148	153	155	175	185	199	–	–	–
CC(O)C(=O)O (stereo not drawn) [Calcium lactate, calcium lactate]	–	–	–	190	204	198	–	–	–
O=P(O)(O)OC1O[C@H](CO)[C@@H](O)[C@H](O)[C@H]1O (stereo partly drawn) [glucose-1-phosphate calcium]	–	–	–	–	–	–	substantially in the same extent as hydrochlorothiazide	≥ 15000	effect of inhibiting dental caries; also recorded: cartilage-calcification promotion effect; also recorded: fatigue-recuperation effect
NS(=O)(=O)c1cc2c(cc1Cl)NCNS2(=O)=O [Hydrochlorothiazide, hydrochlorothiazide]	–	–	–	175	188	200	–	–	–
